# Measurements taken from patent US20080108645A1, “Dihydrotetrabenazines And Pharmaceutical Compositions Containing Them” (CAMBRIDGE LABORATORIES, (IRELAND), LTD., priority 2004, published 2008).
# How the values were obtained:
# [1] = biological target: T1, Dopamine D3 Receptor (Homo sapiens, UniProt P35462); test: Dopamine D3 receptor radioligand binding; conditions: 10 μM; 0.7 nM [3H] Spiperone
# T1 construct: expressed in transfected cells; host or cells: CHO cells
# Experimental: (§1) (a) Adrenergic α2A Receptor: • Reference: S. Uhlen et al. J. Pharmacol. Exp. Ther., 271:1558-1565 (1994) • Source: Human recombinant insect Sf9 cells • Ligand: 1 nM [^3H] […] J. Pharmacol., 99:803-809, (1990) • Source: Wistar rat cerebral cortex • Ligand: 2 nM [3H]
# [2] = biological target: T2, Adrenergic α2B Receptor (Homo sapiens, UniProt P18089); test: Adrenergic α2B receptor radioligand binding; conditions: 10 μM; 2.5 nM [3H] Rauwolscine
# T2 construct: expressed in transfected cells; host or cells: CHO-K1 cells
# T2 sequence (P18089 1-450): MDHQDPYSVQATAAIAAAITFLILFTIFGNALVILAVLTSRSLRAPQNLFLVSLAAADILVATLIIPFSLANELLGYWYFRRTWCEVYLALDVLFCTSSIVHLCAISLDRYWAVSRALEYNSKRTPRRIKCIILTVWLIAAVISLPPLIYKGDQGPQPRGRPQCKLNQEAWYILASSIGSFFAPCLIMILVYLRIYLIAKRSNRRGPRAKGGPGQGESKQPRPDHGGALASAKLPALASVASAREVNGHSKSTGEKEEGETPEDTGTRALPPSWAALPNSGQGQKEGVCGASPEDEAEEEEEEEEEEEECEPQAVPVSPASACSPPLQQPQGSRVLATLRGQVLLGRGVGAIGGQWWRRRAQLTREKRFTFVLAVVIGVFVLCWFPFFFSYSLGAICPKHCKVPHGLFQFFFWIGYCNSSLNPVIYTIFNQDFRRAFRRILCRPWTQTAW
# Experimental: as §1
# [3] = biological target: T3, Dopamine D2L Receptor (Homo sapiens, UniProt P14416); test: Dopamine D2L receptor radioligand binding; conditions: 10 μM; 0.16 nM [3H] Spiperone
# T3 construct: expressed in transfected cells; host or cells: CHO cells
# T3 sequence (P14416 whole entry): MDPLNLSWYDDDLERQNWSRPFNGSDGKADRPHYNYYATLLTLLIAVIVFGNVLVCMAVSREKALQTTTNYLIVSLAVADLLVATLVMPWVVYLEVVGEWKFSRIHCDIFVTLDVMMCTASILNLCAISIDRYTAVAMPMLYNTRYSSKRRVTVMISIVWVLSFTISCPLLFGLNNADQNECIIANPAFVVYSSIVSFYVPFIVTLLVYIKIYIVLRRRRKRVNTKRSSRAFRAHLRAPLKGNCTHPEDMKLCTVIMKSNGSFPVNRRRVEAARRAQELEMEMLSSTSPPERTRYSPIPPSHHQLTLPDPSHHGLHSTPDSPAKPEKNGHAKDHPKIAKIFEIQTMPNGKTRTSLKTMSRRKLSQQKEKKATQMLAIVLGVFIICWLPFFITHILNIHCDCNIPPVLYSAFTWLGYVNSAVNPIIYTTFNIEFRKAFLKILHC
# Experimental: as §1
# [4] = biological target: T4, Dopamine Transporter (DAT) (Homo sapiens, UniProt Q01959); test: Dopamine transporter (DAT) radioligand binding; conditions: 10 μM, 0.15 nM [125I] RTI-55
# T4 construct: expressed in transfected cells; host or cells: CHO cells
# T4 sequence (Q01959 whole entry): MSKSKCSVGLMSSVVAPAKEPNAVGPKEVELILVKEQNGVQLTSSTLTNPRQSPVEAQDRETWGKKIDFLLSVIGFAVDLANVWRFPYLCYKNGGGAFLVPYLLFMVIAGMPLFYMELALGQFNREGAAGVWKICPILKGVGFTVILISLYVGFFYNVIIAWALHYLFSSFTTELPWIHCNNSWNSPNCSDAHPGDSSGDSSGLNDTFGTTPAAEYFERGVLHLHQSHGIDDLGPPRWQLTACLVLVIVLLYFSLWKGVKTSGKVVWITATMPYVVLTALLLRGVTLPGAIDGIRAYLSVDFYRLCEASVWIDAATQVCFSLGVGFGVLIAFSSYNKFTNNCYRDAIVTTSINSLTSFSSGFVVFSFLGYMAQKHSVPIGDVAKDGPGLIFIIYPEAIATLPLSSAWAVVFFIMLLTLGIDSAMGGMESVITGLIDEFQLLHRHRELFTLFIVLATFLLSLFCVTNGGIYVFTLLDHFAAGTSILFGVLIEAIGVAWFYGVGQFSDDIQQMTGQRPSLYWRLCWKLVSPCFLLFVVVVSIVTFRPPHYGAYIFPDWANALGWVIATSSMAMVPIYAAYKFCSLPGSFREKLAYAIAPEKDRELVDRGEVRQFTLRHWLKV
# Experimental: as §1
# [5] = biological target: T5, Sigma σ2 Receptor (Rattus norvegicus, UniProt Q5U3Y7); test: Sigma σ2 receptor radioligand binding; set-up: species or system Wistar rat; conditions: 3 nM [3H] Ifenprodil
# T5 construct: Source: Wistar rat brain; from tissue; host or cells: Wistar rat brain
# T5 sequence (Q5U3Y7 1-176): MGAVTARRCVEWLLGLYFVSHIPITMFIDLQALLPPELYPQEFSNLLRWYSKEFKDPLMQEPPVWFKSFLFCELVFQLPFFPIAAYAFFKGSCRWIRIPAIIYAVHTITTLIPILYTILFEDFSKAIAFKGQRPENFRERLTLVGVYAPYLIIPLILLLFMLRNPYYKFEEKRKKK
# Experimental: as §1
# [6] = test system: Caco-2 monolayer; conditions: for Recovery: human, Caco-2, 1 h, 50 μM, pH 7.4
# Source text: (§2) The assay relies on the ability of Caco-2 cells to differentiate into enterocytes when cultured on a microporous filter for a period of approximately 21 days. During the culture period, the Caco-2 cells undergo spontaneous morphological and biochemical changes, which produce a polarized monolayer with a well-defined brush border on the apical surface, as well as tight cellular junctions. Therefore, these cells may be used as an in vitro model for the analysis of drug permeability.
# (§3) Absorption across the Caco-2 monolayer can be measured in two directions: apical-to-basolateral or basolateral-to-apical, by adding the compound to the apical or the basolateral chamber, respectively. At various time-points, samples are collected from the receiver-chamber for analysis for the rate of absorption as measured by the apparent permeability coefficient (Papp) across the monolayer.
# (§4) The Papp value reflects a combination of the test article permeability through both transcellular (through cell membranes) and the paracellular (across the tight junctions between the cells) pathways. The relative contribution of these pathways depends upon the pKa, partition coefficient (log D), molecular radius, and charge of the test article at a given pH. Papp values can then be used to rank-order compounds for their permeability through Caco-2 monolayers.
# (§5) Absorption was determined at pH 7.4 across cell monolayers in the apical-to-basolateral direction. Caco-2 cells used to estimate Papp values were grown for 26 days on Transwell inserts in 12-well plates. Monolayer integrity was verified before and after the absorption assay by the methods of transepithelial electrical resistance (Ohm-cm^2) and Lucifer Yellow.
# (§6) On the day of the assay, the reference standards were diluted in Hank's balanced salt solution (HBSS), pH 7.4 to a final concentration of 50 μM. […] Dihydrotetrabenazine isomer samples were prepared at a concentration of 50 mM in DMSO. Each stock solution was further diluted in HBSS buffer (pH 7.4) to a final working concentration of 50 μM
# (§7) The Caco-2 cell suspensions were prepared as follows. […] Once the cell density and viability were determined, Caco-2 cells were diluted in culture medium to a final working concentration of 2.0×10^5 cells/ml. The Caco-2 culture medium contained Dulbecco's Modified Eagle Medium, 10% fetal bovine serum, 100 μM non-essential amino acids, 100 U/ml penicillin and 100 μg/ml streptomycin.
# (§8) Costar polycarbonate membranes (0.4 μm pore size) were pre-equilibrated with Caco-2 culture medium for 1 hour in a 37° C. water-jacketed incubator with 5% CO2. The content of the apical chamber was removed and replaced with 500 μl of Caco-2 cell suspension (200 000 cells/ml). Cells were further maintained in culture for 26 days in a 37° C. water-jacketed incubator with 5% CO2.
# (§9) Prior to the assay, all monolayers were washed twice with HBSS and their transepithelial electrical resistance (TEER) was measured with a Millicell-ERS meter. TEER values obtained in the absence of cells were subtracted as background signal. Only monolayer with TEER values over 150 Ohm-cm^2 were used for the absorption assay experiment.
# (§10) All absorption experiments were conducted in triplicate at pH 7.4. The rate of absorption of each reference standard and dihydrotetrabenazine test article was assessed in the apical-to-basolateral direction. Aliquots (100 μl) of each working solution (reference standards and test articles at 50 μM) were set aside at the beginning of the assay for the determination of the initial concentration (Co).
# (§11) Absorption experiments were initiated by replacing the content of the donor chamber with 500 μl of Hanks Balanced Salt Solution containing test articles or reference compounds. Cells were returned to the CO2 incubator for the absorption assay. Samples of 100 μl were collected from the receiver and donor chambers after 1 hour and were used to determine the percentage of recovery.
# [7] = biological target: T6, Serotonin Transporter (SERT) (Homo sapiens, UniProt P31645); test: Serotonin transporter (SERT) radioligand binding; conditions: 10 μM; 0.15 nM [125I] RTI-55
# T6 construct: expressed in transfected cells; host or cells: HEK-293 cells
# T6 sequence (P31645 whole entry): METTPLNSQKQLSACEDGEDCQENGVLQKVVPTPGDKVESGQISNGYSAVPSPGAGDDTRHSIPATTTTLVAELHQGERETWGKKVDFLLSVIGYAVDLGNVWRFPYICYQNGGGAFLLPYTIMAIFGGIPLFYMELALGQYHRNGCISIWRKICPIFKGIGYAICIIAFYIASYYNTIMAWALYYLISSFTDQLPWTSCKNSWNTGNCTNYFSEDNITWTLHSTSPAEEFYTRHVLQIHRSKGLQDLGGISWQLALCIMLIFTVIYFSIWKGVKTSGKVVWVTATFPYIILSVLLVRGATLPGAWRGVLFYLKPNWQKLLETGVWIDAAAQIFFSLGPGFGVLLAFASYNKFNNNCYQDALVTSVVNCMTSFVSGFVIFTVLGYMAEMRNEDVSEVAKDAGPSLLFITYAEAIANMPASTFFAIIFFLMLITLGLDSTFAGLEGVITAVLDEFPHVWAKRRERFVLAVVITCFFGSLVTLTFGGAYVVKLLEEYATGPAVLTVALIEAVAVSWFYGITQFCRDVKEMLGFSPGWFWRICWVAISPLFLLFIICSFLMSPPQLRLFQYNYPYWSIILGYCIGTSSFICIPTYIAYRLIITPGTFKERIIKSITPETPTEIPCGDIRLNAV
# Experimental: as §1
# [8] = biological target: T7, Dopamine D1 Receptor (Homo sapiens, UniProt P21728); test: Dopamine D1 receptor radioligand binding; conditions: 10 μM; 1.4 nM [3H] SCH-23390
# T7 construct: expressed in transfected cells; host or cells: CHO cells
# T7 sequence (P21728 whole entry): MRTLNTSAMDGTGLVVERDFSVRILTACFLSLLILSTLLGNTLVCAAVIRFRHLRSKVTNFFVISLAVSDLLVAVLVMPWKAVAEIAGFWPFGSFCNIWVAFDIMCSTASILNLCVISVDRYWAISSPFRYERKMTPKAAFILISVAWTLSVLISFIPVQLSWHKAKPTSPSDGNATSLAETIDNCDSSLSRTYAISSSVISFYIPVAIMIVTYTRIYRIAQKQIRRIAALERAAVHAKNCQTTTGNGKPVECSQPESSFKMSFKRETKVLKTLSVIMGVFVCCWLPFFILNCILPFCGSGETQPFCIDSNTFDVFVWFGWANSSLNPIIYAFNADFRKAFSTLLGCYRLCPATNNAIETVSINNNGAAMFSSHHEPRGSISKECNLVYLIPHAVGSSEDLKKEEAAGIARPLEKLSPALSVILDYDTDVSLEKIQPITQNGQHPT
# Experimental: as §1
# [9] = test system: Imidazoline I2 (Central) Receptor; test: Imidazoline I2 (central) receptor radioligand binding; set-up: species or system Wistar rat; conditions: 10 μM; 2 nM [3H] Idazoxan
# Experimental: as §1
# [10] = biological target: T8, Adrenergic α2A Receptor (Homo sapiens, UniProt P08913); test: Adrenergic α2A receptor radioligand binding; conditions: 10 μM; 1 nM [3H] MK-912
# T8 construct: expressed in transfected cells; host or cells: insect Sf9 cells
# T8 sequence (P08913 1-465): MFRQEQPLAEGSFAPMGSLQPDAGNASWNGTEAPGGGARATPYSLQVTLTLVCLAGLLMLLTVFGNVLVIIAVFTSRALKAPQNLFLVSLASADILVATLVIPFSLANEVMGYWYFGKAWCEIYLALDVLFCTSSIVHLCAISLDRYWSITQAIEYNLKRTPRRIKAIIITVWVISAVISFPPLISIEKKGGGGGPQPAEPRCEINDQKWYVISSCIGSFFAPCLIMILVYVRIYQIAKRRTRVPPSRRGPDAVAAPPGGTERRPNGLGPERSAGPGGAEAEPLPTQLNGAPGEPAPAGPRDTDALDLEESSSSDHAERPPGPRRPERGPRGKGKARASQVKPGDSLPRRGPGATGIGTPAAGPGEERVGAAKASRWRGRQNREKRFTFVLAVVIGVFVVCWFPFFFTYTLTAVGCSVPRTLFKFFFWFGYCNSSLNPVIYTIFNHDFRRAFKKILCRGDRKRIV
# Experimental: as §1
# [11] = biological target: T9, Sigma σ1 Receptor (Homo sapiens, UniProt Q99720); test: Sigma σ1 receptor radioligand binding; conditions: 10 μM; 8 nM [3H] Haloperidol
# T9 construct: Source: Human jurkat cells; endogenous in cells; host or cells: Jurkat cells
# T9 sequence (Q99720 whole entry): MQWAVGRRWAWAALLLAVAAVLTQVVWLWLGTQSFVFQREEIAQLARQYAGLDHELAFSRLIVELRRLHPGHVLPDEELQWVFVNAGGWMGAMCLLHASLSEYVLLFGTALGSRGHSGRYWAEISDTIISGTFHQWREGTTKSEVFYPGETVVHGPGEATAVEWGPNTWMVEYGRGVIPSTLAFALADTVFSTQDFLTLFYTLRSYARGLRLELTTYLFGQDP
# Experimental: as §1
# [12] = test system: Male Sprague-Dawley rats; test: Spontaneous locomotor activity in rats (sedative properties); type: in vivo, rat; conditions: 1 mg/kg i.p.
# Experimental: A study was carried out in rats to determine whether the dihydrotetrabenazine isomers of the invention have sedative properties. The effects of the isomers on spontaneous locomotor activity in rats were compared with the effects produced by tetrabenazine and haloperidol using the methods set out below.
# Male Sprague-Dawley rats, (Charles River Laboratories, Saint-Germain/L'Arbresle, France), weighing 200-250 g at the beginning of the study, were used for the studies. The rats were housed, 2 or 3 per cage, in Makrolon type III cages, in a room set up with the following environmental conditions: temperature: 20±2° C., humidity: minimum 45%, air changes: >12 per hour, light/dark cycle of 12 h/12 h [on at 7:00 a.m.]. The rats were allowed to acclimatize to their conditions for at least five days before commencement of the study. The rats received food (Dietex, Vigny, France, ref. 811002) and water (tap water in water bottle) ad libitum.
# Solutions of each test compound in corn oil were freshly prepared on the day of the experiment. Haloperidol was prepared in hydroxyethylcellulose, 0.5% in deionized water. Either the vehicle or the test compounds were administered as a single dose (0.3, 1, 3 and 10 mg/kg, 2 mL/kg i.p.). The reference compound haloperidol (1 mg/kg) was administered i.p. (2 mL/kg).
# The animals were placed in plexiglass cages under a video camera in a room with low light intensity (maximum 50 lux). At forty five minutes and 3 hours after administration, locomotor activity was determined during 20 minute periods using a video image analyzer (Videotrack, View Point, France). Locomotor activity was recorded in the reference group (haloperidol) at 1 hour after administration. The number and duration of ambulatory movements and duration of inactivity was measured. At the end of the locomotor activity measurement (45 minutes and 3 hours), palpebral closure and arousal were be scored as follows in the plexiglass cage:
# The number of occurrences and duration (in seconds) of ambulatory (large) movements and the duration of periods of inactivity (seconds) was determined during two 20 minute periods (45 minutes and 3 hours after administration) using a video image analyzer (Videotrack, ViewPoint, Lyon, France). Image tracking was performed using a video camera placed above the plexiglass cage, recording overall locomotor activity. Images recorded with the video camera were digitalized and displacement of the centre of gravity of the digital image spots was tracked and analyzed using the following method: the speed of displacement of the centre of gravity of the spot was measured and two threshold values were set to define the type of movement: threshold 1 (high speed) and threshold 2 (low speed). When the animal moved and the speed of displacement of the centre of gravity of the spot was above threshold 1, the movement was considered as an ambulatory movement.
# The results were expressed as the means±SEMs of the 12 individual values. Statistical analyses were carried out using ANOVA (one way) and Dunnett's t-test and with the non parametric test of Kruskal-Wallis followed by a Mann & Whitney U-test for the sedation cotation. A p value of p<0.05 was taken as indicating significance.
# [13] = in vitro; conditions: human, Caco-2, pH 7.4
# Source text: as §2, §3, §4, §5, §6, §7, §8, §9, §10, §11
# [14] = 45 minutes after administration
# T1 sequence (P35462 whole entry): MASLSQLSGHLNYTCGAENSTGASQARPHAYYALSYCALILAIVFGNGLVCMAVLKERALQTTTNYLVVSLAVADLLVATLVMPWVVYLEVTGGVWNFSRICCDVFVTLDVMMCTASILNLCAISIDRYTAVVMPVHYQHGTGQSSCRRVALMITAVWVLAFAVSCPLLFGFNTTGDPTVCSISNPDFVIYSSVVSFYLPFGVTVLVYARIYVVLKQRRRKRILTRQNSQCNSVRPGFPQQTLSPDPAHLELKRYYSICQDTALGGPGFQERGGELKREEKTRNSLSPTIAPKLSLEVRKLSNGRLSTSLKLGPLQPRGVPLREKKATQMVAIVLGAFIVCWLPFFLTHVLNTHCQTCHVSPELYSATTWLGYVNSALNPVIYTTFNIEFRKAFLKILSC
SMILES,"Percentage Inhibition of Specific Binding, D3 Receptor [1] [%]","Percentage Inhibition of Specific Binding, α2B Receptor [2] [%]","Percentage Inhibition of Specific Binding, D2L Receptor [3] [%]",permeability in the Caco-2 model (in words) [6],Recovery [6] [%],"Percentage Inhibition of Specific Binding, SERT [7] [%]","Percentage Inhibition of Specific Binding, D1 Receptor [8] [%]","Percentage Inhibition of Specific Binding, I2 Receptor [9] [%]","Percentage Inhibition of Specific Binding, α2A Receptor [10] [%]","Percentage Inhibition of Specific Binding, σ1 Receptor [11] [%]","Papp A→B at 1 h, 50 μM [13] [×10⁻⁶ cm/s]","recovery at 1 h, 50 μM [13] [%]",further results
"COc1cc2c(cc1OC)[C@H]1C[C@H](O)[C@@H](CC(C)C)CN1CC2 (single isomer, unassigned) [Isomer A, 3,11b-cis-dihydrotetrabenazine]",69,44,87,high permeability,106.8 ± 7.9,19,78,74,86,48,–,–,"inhibition at 10 µM ([4]; read-out: Percentage Inhibition of Specific Binding, DAT): 3%; inhibition at 10 µM ([5]; read-out: Percentage Inhibition of Specific Binding, σ2 Receptor): 64%"
"O=C(CCCN1CCC(O)(c2ccc(Cl)cc2)CC1)c1ccc(F)cc1 [Haloperidol, reference compound]",–,–,–,–,–,–,–,–,–,–,–,–,"Inactivity Duration [12, 14]: 637.2 ± 60.1 s; Large movements Duration [12, 14]: 14.8 ± 8.5 s; Large movements Occurrence [12, 14]: 58 ± 33; Inactivity Duration ([12]; 3 hours after administration): 723.6 ± 50.2 s; Large movements Duration ([12]; 3 hours after administration): 2.2 ± 2.0 s; Large movements Occurrence ([12]; 3 hours after administration): 9 ± 8"
O=C(O)c1ccccc1O [Salicylic Acid],–,–,–,–,–,–,–,–,–,–,8.91 ± 8.14,91.5 ± 11.4,–
OC[C@@H](O)[C@@H](O)[C@H](O)[C@H](O)CO [Mannitol],–,–,–,–,–,–,–,–,–,–,1.18 ± 0.14,97.1 ± 0.3,–
C[C@]12CC[C@H]3[C@@H](CCC4=CC(=O)CC[C@@]43C)[C@@H]1CC[C@@H]2O [Testosterone],–,–,–,–,–,–,–,–,–,–,–,105 ± 10.6,–
"COc1cc2c(cc1OC)[C@H]1C[C@@H](O)[C@@H](CC(C)C)CN1CC2 (single isomer, unassigned) [Isomer D, 3,11b-cis-dihydrotetrabenazine]",63,50,58,high permeability,106.5 ± 23.8,8,38,55,87,82,–,–,"Percentage Inhibition of Specific Binding, DAT [4]: 2%; Percentage Inhibition of Specific Binding, σ2 Receptor ([5]; 10 μM): 69%"
